Reference: patent publication US20130131033A1, “PHARMACEUTICAL COMPOSITION FOR TREATMENT OF RESPIRATORY TRACT INFECTIONS” (priority 2010, published 2013)
≈ marks a conversion by molar mass, not a printed value.

How the values were obtained:
Assay type in all cases: cell-based
[1] = tested on: Streptococcus pneumoniae (MTCC 2672); assay: Broth macrodilution method (MIC); conditions: MTCC2672, individual drug alone, read-out: MIC (μg/ml) against Streptococcus pneumoniae
Description: (§1) […] LABS PVT. LTD. at its pre-clinical facility based at Chennai by Study No.: AMOX-538-09. The study report was generated on 1Mar. 2010. The study was conducted as per the approved study protocol.
(§2) The test substances used were three formulations, Formulation I, Formulation II and Formulation III prepared in accordance with Example 1, Example 2 and Example 3 respectively. […] The preparations and the method of the study were as per the approved protocol.

[2] = tested on: Streptococcus pyogenes (MTCC 442); assay: Broth macrodilution method (MIC); conditions: MTCC442, individual drug alone, read-out: MIC (μg/ml) against Streptococcus pyogenes
Description: as §1, §2

[3] = tested on: Streptococcus pneumoniae (MTCC 2672); assay: Disc diffusion method (zone of inhibition)
Description: as §1, §2
(§3) The sensitivity of the test substances and the reference standards were interpreted as per the CLSI zone diameter interpretive standards shown in Table 3.

[4] = tested on: Streptococcus pyogenes (MTCC 442); assay: Disc diffusion method (zone of inhibition)
Description: as §1, §2, §3

MIC [1]: 0.063 µg/mL (≈ 0.172 µM)
MIC [2]: 0.031 µg/mL (≈ 0.0848 µM)
SMILES: CC1(C)S[C@@H]2[C@H](NC(=O)[C@H](N)c3ccc(O)cc3)C(=O)N2[C@H]1C(=O)O [Amoxycillin]
Zone Diameter Range (mm) S. pneumoniae ([3]; 8 μg/disc): 33-36 mm
Zone Diameter Range (mm) S. pneumoniae ([3]; 16 μg/disc): 34-36 mm
Zone Diameter Range (mm) S. pneumoniae ([3]; 32 μg/disc): 37-38 mm
Zone Diameter Range (mm) S. pyogenes ([4]; 8 μg/disc): 32-33 mm
Zone Diameter Range (mm) S. pyogenes ([4]; 16 μg/disc): 34-36 mm
Zone Diameter Range (mm) S. pyogenes ([4]; 32 μg/disc): 37-39 mm
